One assay deals with C. krusei ATCC 6258. Nature of the assay: Anti-Fungal (Candida) Activity Assay, broth microtiter MIC. Conditions: Pichia kudriavzevii, ATCC6258, 48 h, read-out: MIC C. krusei ATCC 6258. The assay is classed as cell-based. The method in brief: (§1)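 Strains plated from frozen stock onto Sabouraud dextrose agar, 35 °C, 24 h; colonies suspended directly in RPMI 1640/MOPS, density from standard curves; CLSI M27-A3 microdilution; 48 h read, visual vs growth control.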

The next assay concerns C. albicans ATCC 90028. The assay is described as above. The assay is classed as cell-based. As to conditions: ATCC90028, 48 h, read-out: MIC C. albicans ATCC 90028. An outline of the steps:
as §1

For assay [1], the system named is C. parapsilosis ATCC 22019. The description is as above. It counts as cell-based. Conditions: Lodderomyces parapsilosis, ATCC22019, 48 h, read-out: MIC C. parapsilosis ATCC 22019. The method in brief:
as §1

For assay [2], the system named is Phytophthora capsici (Pc). Put plainly: Growth inhibition assay of fungal pathogens. The assay is classed as cell-based. Conditions: Phytophthora capsici, 48 h, read-out: Concentration at 90% Inhibition Pc. An outline of the steps:
(§2)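 Liquid-culture assay in which test compounds are applied at three final concentrations (50, 10, 2 ppm or 2, 0.4, 0.08 ppm). Inoculum levels follow 48 h growth curves for each fungus. Growth is monitored by OD600 and by eye, and the 48 h values give % inhibition against DMSO.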

The test system of a further assay is Botrtyis cinerea (Bc). Nature of the assay: Growth inhibition assay of fungal pathogens. Conditions: 48 h, read-out: Concentration at 90% Inhibition Bc. The assay is classed as cell-based. The method in brief: (§3)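 Percent growth inhibition was derived from 48 h OD600 and visual scores relative to 2% DMSO, with blank background subtraction. Fungi were grown from spores in 17% V8 liquid medium, R. solani from 1.5 mm plugs in ¼ PDB, with compound at final 50/10/2 or 2/0.4/0.08 ppm.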

Assay [3] relates to Fusarium virguliforme (Fv). Nature of the assay: Growth inhibition assay of fungal pathogens. The assay is classed as cell-based. Conditions: 48 h. The method in brief: as §2
The test system of the next assay is Septoria tritici (St). Nature of the assay: Growth inhibition assay of fungal pathogens. The assay is classed as cell-based. As to conditions: Zymoseptoria tritici, 48 h, read-out: Concentration at 90% Inhibition St. An outline of the steps:
as §2

The next assay has as its system Rhizoctonia solani (Rs). Nature of the assay: Growth inhibition assay of fungal pathogens. It counts as cell-based. As to conditions: 48 h, read-out: Concentration at 90% Inhibition Rs. An outline of the steps:
as §3

Assay [4] relates to Collectotrichum graminicola (Cg). Nature of the assay: Growth inhibition assay of fungal pathogens. The assay is classed as cell-based. As to conditions: 48 h, read-out: Concentration at 90% Inhibition Cg. An outline of the steps: as §2
Assay [5] deals with Fusarium moniliforme (Fm). Nature of the assay: Growth inhibition assay of fungal pathogens. Conditions: for IC90: Fusarium verticillioides, 48 h, read-out: Concentration at 90% Inhibition Fm; for Concentration at 90% Inhibition Fm: Table 4b, 48 hours. The assay is classed as cell-based. The method in brief:
as §3

The subject of a further assay is Diplodia maydis (Dm). Put plainly: Growth inhibition assay of fungal pathogens. It counts as cell-based. As to conditions: Stenocarpella maydis, 48 h, read-out: Concentration at 90% Inhibition Dm. The method in brief:
as §3

The target in a further assay is fungal (fACC2) ACC2 (UniProt Q00955). Conditions: read-out: fACC2 IC50; fungal ACC2, ADP-Glo. In general terms: ADP-Glo turns the ADP formed in a reaction into a luminescent signal.
Chain of fungal (fACC2) ACC2 (Q00955 whole entry): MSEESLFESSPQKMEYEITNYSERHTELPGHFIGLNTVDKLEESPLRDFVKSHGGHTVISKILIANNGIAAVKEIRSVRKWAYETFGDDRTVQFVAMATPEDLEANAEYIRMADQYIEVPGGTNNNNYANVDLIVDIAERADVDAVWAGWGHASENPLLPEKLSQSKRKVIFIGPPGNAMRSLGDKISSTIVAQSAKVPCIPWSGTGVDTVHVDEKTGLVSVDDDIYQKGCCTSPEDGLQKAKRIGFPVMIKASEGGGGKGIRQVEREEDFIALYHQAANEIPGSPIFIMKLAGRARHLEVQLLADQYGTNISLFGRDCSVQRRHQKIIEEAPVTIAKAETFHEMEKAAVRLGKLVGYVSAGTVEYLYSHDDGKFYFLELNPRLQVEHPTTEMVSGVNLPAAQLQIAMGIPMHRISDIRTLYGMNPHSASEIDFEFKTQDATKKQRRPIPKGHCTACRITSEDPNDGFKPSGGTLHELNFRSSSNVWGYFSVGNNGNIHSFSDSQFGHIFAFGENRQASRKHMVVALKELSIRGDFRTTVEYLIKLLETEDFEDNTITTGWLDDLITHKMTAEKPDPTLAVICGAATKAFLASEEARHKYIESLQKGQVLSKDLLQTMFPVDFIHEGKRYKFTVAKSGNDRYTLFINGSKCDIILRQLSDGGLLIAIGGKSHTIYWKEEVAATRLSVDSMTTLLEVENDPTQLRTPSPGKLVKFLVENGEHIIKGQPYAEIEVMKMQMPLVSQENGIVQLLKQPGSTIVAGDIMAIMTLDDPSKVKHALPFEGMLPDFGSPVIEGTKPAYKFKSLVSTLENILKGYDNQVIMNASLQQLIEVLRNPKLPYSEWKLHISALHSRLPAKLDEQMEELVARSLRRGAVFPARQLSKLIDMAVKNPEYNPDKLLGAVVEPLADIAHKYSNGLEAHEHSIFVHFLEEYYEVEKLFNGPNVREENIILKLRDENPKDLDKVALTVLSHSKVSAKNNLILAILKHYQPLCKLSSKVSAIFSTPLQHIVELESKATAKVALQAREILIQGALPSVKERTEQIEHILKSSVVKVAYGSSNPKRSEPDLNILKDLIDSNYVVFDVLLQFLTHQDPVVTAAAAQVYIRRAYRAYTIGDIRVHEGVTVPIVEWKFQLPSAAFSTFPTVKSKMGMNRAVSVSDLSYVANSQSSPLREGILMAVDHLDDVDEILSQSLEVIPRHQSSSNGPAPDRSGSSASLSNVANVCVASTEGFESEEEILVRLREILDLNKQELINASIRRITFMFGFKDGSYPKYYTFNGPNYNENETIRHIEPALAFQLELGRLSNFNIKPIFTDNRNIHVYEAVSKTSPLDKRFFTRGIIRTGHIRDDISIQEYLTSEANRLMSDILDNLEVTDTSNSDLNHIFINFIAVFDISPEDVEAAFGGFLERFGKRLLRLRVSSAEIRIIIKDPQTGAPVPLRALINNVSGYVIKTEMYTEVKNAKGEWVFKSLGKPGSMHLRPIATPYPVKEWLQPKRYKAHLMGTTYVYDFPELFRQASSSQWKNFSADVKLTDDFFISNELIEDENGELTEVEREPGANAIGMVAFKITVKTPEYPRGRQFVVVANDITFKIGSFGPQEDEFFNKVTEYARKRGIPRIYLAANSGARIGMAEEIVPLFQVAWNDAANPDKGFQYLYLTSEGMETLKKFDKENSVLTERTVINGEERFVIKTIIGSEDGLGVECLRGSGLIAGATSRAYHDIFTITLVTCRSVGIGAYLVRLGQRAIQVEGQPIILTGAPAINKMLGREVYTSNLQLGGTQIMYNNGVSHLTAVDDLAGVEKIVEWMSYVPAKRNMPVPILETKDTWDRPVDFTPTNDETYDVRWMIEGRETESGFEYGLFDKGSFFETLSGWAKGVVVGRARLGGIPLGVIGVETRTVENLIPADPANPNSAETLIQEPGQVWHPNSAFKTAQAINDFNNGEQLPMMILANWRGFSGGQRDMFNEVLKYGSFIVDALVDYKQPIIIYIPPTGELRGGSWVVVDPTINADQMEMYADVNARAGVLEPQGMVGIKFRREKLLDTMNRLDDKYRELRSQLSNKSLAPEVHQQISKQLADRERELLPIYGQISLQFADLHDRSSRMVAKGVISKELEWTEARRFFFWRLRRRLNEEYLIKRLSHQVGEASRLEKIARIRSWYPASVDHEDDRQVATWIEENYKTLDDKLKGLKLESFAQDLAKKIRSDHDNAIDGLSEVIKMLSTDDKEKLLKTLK
The target in a further assay is human (hACC2) ACC2 (Homo sapiens, UniProt O00763). Nature of the assay: In vitro Acetyl-CoA Carboxylase (ACC) inhibition assay (ADP-Glo), hACC2. The assay is classed as biochemical. As to the method:
The detailed procedure is as follows. […] 10 μL ADP glo reagent was added. […] 20 μL kinase detection reagent was added.
“NA” stands for “not assayed.”

The mark [6] stands for this setting: read-out: Concentration at 90% Inhibition Fv, Table 4a, 48 hours.
Setting [7] is: read-out: Concentration at 90% Inhibition Fv, Table 4b, 48 hours.

Each structure is given as a SMILES string. ≈ marks a conversion by molar mass, not a printed value. Where two headings read alike, the source gives them in different places.

Chain of human (hACC2) ACC2 (O00763 whole entry): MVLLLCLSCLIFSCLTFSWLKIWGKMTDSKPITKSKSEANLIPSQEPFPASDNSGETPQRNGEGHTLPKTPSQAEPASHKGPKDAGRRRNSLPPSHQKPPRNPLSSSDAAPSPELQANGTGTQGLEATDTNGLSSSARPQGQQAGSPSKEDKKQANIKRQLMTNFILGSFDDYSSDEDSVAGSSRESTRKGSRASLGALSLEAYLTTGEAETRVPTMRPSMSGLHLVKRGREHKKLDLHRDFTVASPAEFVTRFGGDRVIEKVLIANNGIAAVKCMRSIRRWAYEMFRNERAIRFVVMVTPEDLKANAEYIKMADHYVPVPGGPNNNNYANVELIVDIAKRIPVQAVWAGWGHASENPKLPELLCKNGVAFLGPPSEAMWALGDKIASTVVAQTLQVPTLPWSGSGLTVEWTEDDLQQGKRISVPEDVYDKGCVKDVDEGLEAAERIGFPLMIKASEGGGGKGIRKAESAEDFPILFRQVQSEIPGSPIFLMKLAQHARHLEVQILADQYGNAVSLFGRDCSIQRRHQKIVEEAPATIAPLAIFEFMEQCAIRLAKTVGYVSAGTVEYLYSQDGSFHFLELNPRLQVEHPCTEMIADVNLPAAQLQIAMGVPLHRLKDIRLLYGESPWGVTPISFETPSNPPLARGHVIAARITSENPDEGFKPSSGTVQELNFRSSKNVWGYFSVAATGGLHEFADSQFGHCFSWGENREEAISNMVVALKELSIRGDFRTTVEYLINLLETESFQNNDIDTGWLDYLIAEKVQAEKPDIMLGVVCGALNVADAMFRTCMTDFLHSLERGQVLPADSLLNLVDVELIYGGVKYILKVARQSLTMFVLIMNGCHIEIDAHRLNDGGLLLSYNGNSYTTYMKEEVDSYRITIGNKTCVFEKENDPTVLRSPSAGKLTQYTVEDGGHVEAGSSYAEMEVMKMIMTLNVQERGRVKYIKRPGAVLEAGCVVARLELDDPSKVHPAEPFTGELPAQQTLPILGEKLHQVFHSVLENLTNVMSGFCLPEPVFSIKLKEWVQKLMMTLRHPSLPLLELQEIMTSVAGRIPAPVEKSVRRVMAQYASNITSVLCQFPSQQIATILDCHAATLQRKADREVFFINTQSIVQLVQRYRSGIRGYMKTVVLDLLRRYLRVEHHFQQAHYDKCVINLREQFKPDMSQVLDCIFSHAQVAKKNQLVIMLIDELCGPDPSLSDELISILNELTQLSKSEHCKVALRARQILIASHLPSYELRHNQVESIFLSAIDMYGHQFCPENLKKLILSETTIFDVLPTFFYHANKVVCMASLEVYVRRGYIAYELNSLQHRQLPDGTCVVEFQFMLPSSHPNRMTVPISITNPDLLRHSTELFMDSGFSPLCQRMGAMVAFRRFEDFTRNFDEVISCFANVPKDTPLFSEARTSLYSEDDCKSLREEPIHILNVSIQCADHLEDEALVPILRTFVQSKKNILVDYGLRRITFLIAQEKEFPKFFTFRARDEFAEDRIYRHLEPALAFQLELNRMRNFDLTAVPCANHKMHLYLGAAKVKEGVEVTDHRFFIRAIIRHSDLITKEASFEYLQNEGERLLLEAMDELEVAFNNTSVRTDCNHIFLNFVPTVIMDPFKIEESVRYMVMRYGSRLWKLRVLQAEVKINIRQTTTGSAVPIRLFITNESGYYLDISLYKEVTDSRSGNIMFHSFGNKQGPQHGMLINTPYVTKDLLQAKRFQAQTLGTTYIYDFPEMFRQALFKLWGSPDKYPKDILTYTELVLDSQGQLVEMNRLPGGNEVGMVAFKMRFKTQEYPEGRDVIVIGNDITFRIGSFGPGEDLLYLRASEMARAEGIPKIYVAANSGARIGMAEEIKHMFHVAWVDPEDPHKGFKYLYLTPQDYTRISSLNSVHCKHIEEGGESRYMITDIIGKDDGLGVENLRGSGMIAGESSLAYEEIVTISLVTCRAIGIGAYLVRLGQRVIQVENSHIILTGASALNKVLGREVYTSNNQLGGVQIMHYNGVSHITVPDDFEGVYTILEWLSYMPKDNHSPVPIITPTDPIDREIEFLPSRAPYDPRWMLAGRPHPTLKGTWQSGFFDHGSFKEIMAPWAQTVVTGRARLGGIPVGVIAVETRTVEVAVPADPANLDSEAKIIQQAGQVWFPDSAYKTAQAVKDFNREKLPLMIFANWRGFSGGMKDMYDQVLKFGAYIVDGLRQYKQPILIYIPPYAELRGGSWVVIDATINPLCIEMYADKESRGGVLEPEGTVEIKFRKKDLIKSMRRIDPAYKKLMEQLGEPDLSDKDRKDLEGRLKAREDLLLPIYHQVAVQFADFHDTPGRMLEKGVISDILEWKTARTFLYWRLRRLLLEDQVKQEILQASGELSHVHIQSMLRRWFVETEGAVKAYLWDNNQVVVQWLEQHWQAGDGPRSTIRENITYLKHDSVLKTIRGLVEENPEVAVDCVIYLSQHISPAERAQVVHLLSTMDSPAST

`COc1ccc(F)cc1[C@H](Cn1c(=O)n(C(C)(C)C(=O)N2CCCCC2)c(=O)c2c(C)c(-n3cccn3)sc21)OC(C)C` [Compound I-2, (R)-1-(2-(5-fluoro-2-methoxyphenyl)-2-isopropoxyethyl)-5-methyl-3-(2-methyl-1-oxo-1-(piperidin-1-yl)propan-2-yl)-6-(1H-pyrazol-1-yl)thieno[2,3-d]pyrimidine-2,4(1H,3H)-dione]: the figures for the MIC (with C. krusei ATCC 6258; in the assay on C. albicans ATCC 90028; in assay [1]) were 0.25 to 1 µg/mL (≈ 0.409 to 1.63 µM), 0.25 to 1 µg/mL (≈ 0.409 to 1.63 µM) and 1.1 to 2 µg/mL (≈ 1.8 to 3.27 µM), respectively. Besides, the IC90 in assay [2] (Table 4a) is more than 50 µg/mL; in assay [2] (Table 4b), more than 50 µg/mL; with Botrtyis cinerea (Bc) (Table 4a), 0.4 µg/mL (≈ 0.654 µM); in the assay with Botrtyis cinerea (Bc) (Table 4b) it was 0.4 µg/mL (≈ 0.654 µM); in assay [3] (setting [6]), 0.4 µg/mL (≈ 0.654 µM); in assay [3] (setting [7]) it was 0.4 µg/mL (≈ 0.654 µM). Besides, the IC90 with Septoria tritici (St) (Table 4a) was more than 50 µg/mL; in the assay with Septoria tritici (St) (Table 4b), more than 50 µg/mL; in the assay with Rhizoctonia solani (Rs) (Table 4a), 0.4 µg/mL (≈ 0.654 µM); in the assay with Rhizoctonia solani (Rs) (Table 4b), 0.4 µg/mL (≈ 0.654 µM); in assay [4] (Table 4a) it was 2 µg/mL (≈ 3.27 µM); in [4] (Table 4b), 2 µg/mL (≈ 3.27 µM). The IC90 is 0.08 µg/mL (≈ 0.131 µM) in assay [5], 0.4 µg/mL (≈ 0.654 µM) with Diplodia maydis (Dm) (Table 4a) and 0.4 µg/mL (≈ 0.654 µM) in the assay on Diplodia maydis (Dm) (Table 4b). For the same molecule, the “Concentration at 90% Inhibition Fm” value in [5] was “AA (“AA” provided a compound concentration of 0.08 ppm at 90% inhibition of fungal pathogens)”. Also, the IC50 lay within 0.6 to 3 nM at fungal (fACC2) ACC2 and 10 to 40 nM at human (hACC2) ACC2.
As for `COc1ccccc1[C@H](Cn1c(=O)n(C(C)(C)C(=O)N2CCCCC2)c(=O)c2c(C)c(-n3cccn3)sc21)OC1CCOCC1` [Compound I-13, (R)-1-(2-(2-methoxyphenyl)-2-((tetrahydro-2H-pyran-4-yl)oxy)ethyl)-5-methyl-3-(2-methyl-1-oxo-1-(piperidin-1-yl)propan-2-yl)-6-(1H-pyrazol-1-yl)thieno[2,3-d]pyrimidine-2,4(1H,3H)-dione], the minimal inhibitory concentration (MIC) is 0.25 to 1 µg/mL (≈ 0.393 to 1.57 µM) in the assay on C. krusei ATCC 6258, 0.25 to 1 µg/mL (≈ 0.393 to 1.57 µM) with C. albicans ATCC 90028 and 1.1 to 2 µg/mL (≈ 1.73 to 3.15 µM) in assay [1]. Moreover, the IC90 in [2] (Table 4a) is more than 50 µg/mL; in assay [2] (Table 4b), more than 50 µg/mL; in the assay with Botrtyis cinerea (Bc) (Table 4a), 2 µg/mL (≈ 3.15 µM); in the assay on Botrtyis cinerea (Bc) (Table 4b), 2 µg/mL (≈ 3.15 µM); in [3] (setting [6]) it was more than 50 µg/mL; in [3] (setting [7]), 10 µg/mL (≈ 15.7 µM). In addition, the IC90 is more than 50 µg/mL in the assay with Septoria tritici (St) (Table 4a); more than 50 µg/mL with Septoria tritici (St) (Table 4b); more than 50 µg/mL in the assay on Rhizoctonia solani (Rs) (Table 4a); 10 µg/mL (≈ 15.7 µM) in the assay on Rhizoctonia solani (Rs) (Table 4b); more than 50 µg/mL in [4] (Table 4a); 10 µg/mL (≈ 15.7 µM) in assay [4] (Table 4b). Further, the IC90 in [5] is 0.4 µg/mL (≈ 0.629 µM); with Diplodia maydis (Dm) (Table 4a) it was more than 50 µg/mL; in the assay on Diplodia maydis (Dm) (Table 4b), 10 µg/mL (≈ 15.7 µM). Further, the “Concentration at 90% Inhibition Fm” value in assay [5] was “A (“A” provided a compound concentration of 0.4 ppm at 90% inhibition of fungal pathogens)”. Also, the values for the IC50 at fungal (fACC2) ACC2 and against human (hACC2) ACC2 were 0.6 to 3 nM and 10 to 40 nM, respectively.

Broadly, the MIC is the least concentration at which growth counts as inhibited. By IC50 is commonly meant the point on the concentration scale where inhibition reaches its midpoint.
